In data set [1] the target is human TLR7 (Homo sapiens (Human), UniProt Q9NYK1). The data set can be described thus: HEK-Blue-hTLR7 cells assay (SEAP reporter). The class given is cell-based. As to conditions: 20 hrs, read-out: HEK-Blue-hTLR7 (EC50 (μM)). In outline:
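HEK-Blue cells stably carrying human TLR7 and an NF-κB-driven SEAP reporter, preincubated 24 h, then exposed to serially diluted compound (1% DMSO final) for 20 h at 37 °C. Supernatant SEAP measured with QUANTI-Blue substrate, 2 h at 37 °C, absorbance read at 620–655 nm.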

Data set [2] deals with hERG channel (Homo sapiens (Human), UniProt Q12809). The data set can be described thus: hERG channel inhibition assay (patch-clamp, CHOhERG cells). Format: cell-based. On the procedure: The hERG K^+ channels were cloned in humans and stably expressed in a CHO (Chinese hamster ovary) cell line. CHOhERG cells were used for patch-clamp (voltage-clamp, whole-cell) experiments. Cells were stimulated by a voltage pattern to activate hERG channels and conduct IKhERG currents (rapid delayed outward rectifier potassium current of the hERG channel). […] Thereafter, the test compound was added to the preparation at increasing concentrations. For each concentration, an attempt was made to reach a steady-state effect, usually, this was achieved within 3-10 min at which time the next highest concentration was applied. The amplitude and kinetics of IKhERG are recorded in each concentration of the drug which were compared to the control values (taken as 100%). (references: Redfern W S, Carlsson L, Davis A S, Lynch W G, MacKenzie I, Palethorpe S, Siegl P K, Strang I, Sullivan A T, Wallis R, Camm A J, Hammond T G. 2003; Relationships between preclinical cardiac electrophysiology, clinical QT interval prolongation and torsade de pointes for a broad range of drugs: evidence for a provisional safety margin in drug development. Cardiovasc. Res. 58:32-45, Sanguinetti M C, Tristani-Firouzi M. 2006; hERG potassium channels and cardiac arrhythmia. Nature 440:463-469, Webster R, Leishman D, Walker D. 2002; Towards a drug concentration effect relationship for QT prolongation and torsades de pointes. Curr. Opin. Drug Discov. Devel. 5:116-26).
Sequence of hERG channel (Q12809 whole entry): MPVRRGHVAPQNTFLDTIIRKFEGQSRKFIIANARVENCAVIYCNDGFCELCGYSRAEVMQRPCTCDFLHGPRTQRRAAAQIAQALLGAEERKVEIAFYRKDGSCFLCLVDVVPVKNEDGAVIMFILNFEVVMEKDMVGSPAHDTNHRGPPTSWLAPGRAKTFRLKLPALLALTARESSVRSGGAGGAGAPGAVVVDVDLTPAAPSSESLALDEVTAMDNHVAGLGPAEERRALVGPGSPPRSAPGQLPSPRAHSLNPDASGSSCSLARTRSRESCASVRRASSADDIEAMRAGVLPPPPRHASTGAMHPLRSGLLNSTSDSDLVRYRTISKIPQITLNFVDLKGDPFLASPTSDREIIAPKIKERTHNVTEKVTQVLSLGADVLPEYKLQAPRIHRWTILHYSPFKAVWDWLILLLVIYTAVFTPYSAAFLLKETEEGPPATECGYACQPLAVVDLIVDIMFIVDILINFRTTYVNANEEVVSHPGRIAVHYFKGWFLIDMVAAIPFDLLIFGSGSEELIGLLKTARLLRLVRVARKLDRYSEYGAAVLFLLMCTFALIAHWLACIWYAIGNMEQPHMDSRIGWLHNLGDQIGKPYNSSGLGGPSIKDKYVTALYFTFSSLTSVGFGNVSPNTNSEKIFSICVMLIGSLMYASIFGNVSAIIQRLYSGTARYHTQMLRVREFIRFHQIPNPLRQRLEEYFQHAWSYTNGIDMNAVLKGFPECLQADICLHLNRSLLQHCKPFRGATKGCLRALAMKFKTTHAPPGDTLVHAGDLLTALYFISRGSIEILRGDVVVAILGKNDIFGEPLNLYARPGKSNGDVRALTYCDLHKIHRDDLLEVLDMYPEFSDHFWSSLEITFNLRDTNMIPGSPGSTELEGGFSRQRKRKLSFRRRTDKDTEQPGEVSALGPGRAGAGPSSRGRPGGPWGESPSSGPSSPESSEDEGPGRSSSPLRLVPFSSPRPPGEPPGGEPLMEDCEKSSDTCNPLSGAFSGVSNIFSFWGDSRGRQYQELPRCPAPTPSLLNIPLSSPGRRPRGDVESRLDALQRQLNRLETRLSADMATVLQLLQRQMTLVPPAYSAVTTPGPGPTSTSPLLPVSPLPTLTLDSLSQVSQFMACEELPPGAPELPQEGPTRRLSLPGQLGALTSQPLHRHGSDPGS

Data set [3] can be described thus: Metabolic stability in human liver microsomes. As to conditions: 1 μM test compound, 0.5 mg/mL microsomal protein; 6.15 mL/min/kg is the limitation of assay sensitivity. An outline of the steps:
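Test compound at 1 μM with 0.5 mg/mL microsomal protein in 100 mM potassium phosphate, pH 7.4, 37 °C, 10 min preincubation, reaction started with NADPH regenerating system. Sampled at 0, 3, 6, 9, 15 and 30 min, quenched with cold ACN, remaining parent by LC-MS/MS. No-NADPH controls at 0 and 30 min.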
A general note: Liver microsomes are a subcellular fraction often used to study metabolism.

The mark [4] stands for this setting: human, CHO cells stably expressing hERG, read-out: hERG IC20.

Where two headings read alike, the source gives them in different places.

Sequence of human TLR7 (Q9NYK1 27-1049): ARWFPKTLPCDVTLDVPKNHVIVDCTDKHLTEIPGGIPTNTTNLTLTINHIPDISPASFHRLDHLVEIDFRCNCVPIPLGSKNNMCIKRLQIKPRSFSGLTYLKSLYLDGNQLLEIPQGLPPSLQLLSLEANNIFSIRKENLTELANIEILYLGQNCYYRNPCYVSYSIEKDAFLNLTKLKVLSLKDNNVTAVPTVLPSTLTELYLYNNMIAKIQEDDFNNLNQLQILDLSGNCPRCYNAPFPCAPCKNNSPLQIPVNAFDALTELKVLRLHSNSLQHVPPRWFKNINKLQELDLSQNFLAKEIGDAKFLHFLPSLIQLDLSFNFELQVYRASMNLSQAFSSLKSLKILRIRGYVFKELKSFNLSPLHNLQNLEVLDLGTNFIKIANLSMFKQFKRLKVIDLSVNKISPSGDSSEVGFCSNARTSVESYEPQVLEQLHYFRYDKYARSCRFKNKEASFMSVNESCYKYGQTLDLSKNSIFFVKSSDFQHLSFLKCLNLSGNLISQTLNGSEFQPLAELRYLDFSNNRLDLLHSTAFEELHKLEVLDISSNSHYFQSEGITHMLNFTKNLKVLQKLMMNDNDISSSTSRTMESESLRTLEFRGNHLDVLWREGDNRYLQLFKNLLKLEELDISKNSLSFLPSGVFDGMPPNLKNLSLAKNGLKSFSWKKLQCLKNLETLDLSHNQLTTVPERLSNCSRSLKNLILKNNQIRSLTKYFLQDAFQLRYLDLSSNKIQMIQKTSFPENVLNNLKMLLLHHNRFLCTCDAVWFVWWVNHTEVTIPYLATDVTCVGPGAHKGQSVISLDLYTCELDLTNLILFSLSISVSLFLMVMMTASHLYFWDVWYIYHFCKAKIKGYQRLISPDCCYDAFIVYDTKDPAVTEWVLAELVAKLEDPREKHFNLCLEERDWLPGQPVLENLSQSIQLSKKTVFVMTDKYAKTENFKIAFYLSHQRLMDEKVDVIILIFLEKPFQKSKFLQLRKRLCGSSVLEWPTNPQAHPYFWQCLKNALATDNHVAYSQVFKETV

The EC50 is the concentration at which the effect is half-maximal. What is called IC20 is the point of the concentration-response curve where the effect stands at 20%. For the compound `CCCS(=N)(=O)c1nc(N)c2[nH]c(=O)n(Cc3ccccc3)c2n1` (single isomer, unassigned) [Example 4-A, 6-Amino-9-benzyl-2-(propylsulfonimidoyl)-7H-purin-8-one], the EC50 in data set [1] stood at 0.067 µM. Further, the “Safety ratio (hERG IC20/EC50)” value in data set [2] is reported as above 149. Also, in data set [2] (read-out: hERG IC20), the IC20 was above 10 µM.
`CCCS(=N)(=O)c1nc(N)c2[nH]c(=O)n(Cc3ccccc3)c2n1` (single isomer, unassigned) [Example 4-B, 6-Amino-9-benzyl-2-(propylsulfonimidoyl)-7H-purin-8-one]: in data set [2], the “Safety ratio (hERG IC20/EC50)” value is above 116. Moreover, the IC20 in data set [2] (read-out: hERG IC20) was above 10 µM.
For the compound `CCCS(=N)(=O)c1nc(N)c2[nH]c(=O)n(Cc3ccc(C)cc3)c2n1` (single isomer, unassigned) [Example 29-A, 6-Amino-2-(propylsulfonimidoyl)-9-(p-tolylmethyl)-7H-purin-8-one], the “Safety ratio (hERG IC20/EC50)” value in data set [2] was above 526. Further, in data set [3], the “Human Liver Microsome Clearance” value is on record as below 6.15 mL/min/kg.
As for `CCS(=N)(=O)c1nc(N)c2[nH]c(=O)n(Cc3ccc(Cl)cc3)c2n1` (single isomer, unassigned) [Example 70-A, 6-Amino-9-[(4-chlorophenyl)methyl]-2-(ethylsulfonimidoyl)-7H-purin-8-one], the “Human Liver Microsome Clearance” value in data set [3] is below 6.15 mL/min/kg.
On the same count and under the same terms, then `CCS(=N)(=O)c1nc(N)c2[nH]c(=O)n(Cc3ccc(Cl)cc3)c2n1` (single isomer, unassigned) [Example 70-B, 6-Amino-9-[(4-chlorophenyl)methyl]-2-(ethylsulfonimidoyl)-7H-purin-8-one], with below 6.15 mL/min/kg.
With `CCS(=N)(=O)c1nc(N)c2[nH]c(=O)n(Cc3ccc(C)cc3)c2n1` (single isomer, unassigned) [Example 71-A, 6-Amino-2-(ethylsulfonimidoyl)-9-(p-tolylmethyl)-7H-purin-8-one], the “Safety ratio (hERG IC20/EC50)” value in data set [2] was above 75. Moreover, in data set [3], the “Human Liver Microsome Clearance” value is reported as below 6.15 mL/min/kg.
The term IC50 denotes the concentration that gives 50% inhibition. For `CCCS(=N)(=O)c1nc(N)c2[nH]c(=O)n(Cc3ccccc3)c2n1` (stereo not drawn) [Example 4, 6-Amino-9-benzyl-2-(propylsulfonimidoyl)-7H-purin-8-one], the EC50 in data set [1] was found to be 0.065 µM. Besides, in data set [2], the “Safety ratio (hERG IC20/EC50)” value was above 154. The IC20 in data set [2] (setting [4]) was above 10 µM. The IC50 in data set [2] (read-out: hERG IC50) was above 20 µM. In data set [3], the “Human Liver Microsome Clearance” value is on record as below 6.15 mL/min/kg.
As for `CCCS(=N)(=O)c1nc(N)c2[nH]c(=O)n(Cc3ccc(Cl)cc3)c2n1` (stereo not drawn) [Example 9, 6-Amino-9-[(4-chlorophenyl)methyl]-2-(propylsulfonimidoyl)-7H-purin-8-one], the EC50 in data set [1] amounted to 0.012 µM. Also, in data set [2], the “Safety ratio (hERG IC20/EC50)” value was above 833. Also, the IC20 in data set [2] (setting [4]) is above 10 µM. The IC50 in data set [2] (read-out: hERG IC50) is above 20 µM.
The matching figures for `CCCS(=N)(=O)c1nc(N)c2[nH]c(=O)n(Cc3ccc(F)c(F)c3)c2n1` (stereo not drawn) [Example 27, 6-Amino-9-(3,4-difluorophenylmethyl)-2-(propylsulfonimidoyl)-7H-purin-8-one]: 0.036 µM, above 278, above 10 µM and above 20 µM.
Consider `CCCS(=N)(=O)c1nc(N)c2[nH]c(=O)n(Cc3ccc(C)nc3)c2n1` (stereo not drawn) [Example 34, 6-Amino-9-[(6-methyl-3-pyridyl)methyl]-2-(propylsulfonimidoyl)-7H-purin-8-one], for which the EC50 in data set [1] is 0.03 µM. Further, the IC50 in data set [2] is above 20 µM. Besides, the IC20 in data set [2] (human) was above 10 µM. In data set [3], the “Human Liver Microsome Clearance” value was below 6.15 mL/min/kg.
Consider `CCCS(=N)(=O)c1nc(N)c2[nH]c(=O)n(Cc3ccc(C(=O)O)cc3)c2n1` (stereo not drawn) [Example 39, 4-[[6-Amino-8-oxo-2-(propylsulfonimidoyl)-7H-purin-9-yl]methyl]benzoic acid], for which the EC50 in data set [1] was determined as 0.17 µM. The “Safety ratio (hERG IC20/EC50)” value in data set [2] was above 59. Further, the concentration for an effect of 20% (IC20) in data set [2] (setting [4]) was above 10 µM. Besides, the IC50 in data set [2] (read-out: hERG IC50) was above 20 µM. Moreover, the “Human Liver Microsome Clearance” value in data set [3] was below 6.15 mL/min/kg.

For the origin of these results see US9708325B2, “Sulfonimidoylpurinone compounds and derivatives for the treatment and prophylaxis of virus infection” (Hoffmann-La Roche Inc., priority 2015, dated 2017).
